According to US20050220895A1, “Use of gallium to treat inflammatory arthritis” (priority 2003, published 2005):
“Also recorded” adds a separate entry of the source.

Assays:
[1] = tested on: male Lewis rats with streptococcal (PGPS) cell wall induced arthritis; experiment: Streptococcal cell wall (PGPS)-induced chronic arthritis model; assay type: in vivo
Method: (§1) Two preclinical animal models were tested for oral gallium efficacy in inflammatory polyarthritis; adjuvant-induced acute arthritis and streptococcal cell wall-induced chronic arthritis, respectively. Male Lewis rats were used in both studies. The models are described in detail in Bendele et al. (1999) Toxicologic Pathology 27(1):134-142 and Bendele (2001) J. Musculoskel. Neuron. Interact. 1(4):377-385.
This is a multiple reactivated peptidoglycan-polysaccharide (PGPS)-induced arthritis model. The rapid onset (4-5 days) of arthritic symptoms in this model includes ankle inflammation, bone resorption, mild cartilage destruction.
(§2) Materials and methods: Male Lewis rats (N=12/group) with developing streptococcal (PGPS) cell wall induced arthritis were treated with gallium maltolate (100, 200 or 300 mg/kg, po, qd) or Cyclosporin A (CSA, 5-20 mg/kg) prophylactically beginning 1 day after intra-articular injection of PGPS into the ankles (day −14) and continued for 14 days at which time systemic reactivation was induced by intravenous (iv) injection of PGPS (day 0). Treatment was continued for another 14 days and animals were reactivated a second time (day 14). Following an additional week of treatment, rats were terminated for a total of […] of dosing. Rats were weighed on days (−)13, (−)7, 0, 8, 14 and 21, at which time, dose volumes were adjusted. Right ankle caliper measurements were taken on days 0, 2, 4, 6, 8, 10, 12, 14, 16, 18, 20 and 21. […] All rats had terminal blood samples obtained for PK sampling. Scoring of Joints: PGPS arthritic ankles are given scores of 0-5 (normal to severe) for inflammation, pannus, cartilage damage, bone resorption and periosteal bone proliferation according criteria similar to the acute arthritis study. The primary endpoint is periarticular inflammation and bone resorption as quantitated by ankle caliper measurements and histopathologic evaluation of ankles (scoring of joints).

[2] = Serum gallium levels, chronic arthritis study; assay type: in vivo, rat; conditions: Study PG-PS/TT-1, 100 mg/kg, 1% MC suspension, 35 days, pretreatment 13 days, fasted, 1 hour post-dosing
Method: as §2
The following data was compiled from the above described model studies. […]

[3] = Serum gallium levels, acute arthritis studies; assay type: in vivo, rat; conditions: for Mean Serum Gallium Concentration: 14 days, 1 hour post-dosing
Method: Materials and methods: For the adjuvant-induced acute arthritis model, male Lewis rats (7 per group for Gallium Maltolate, 4 per group for normal controls and dexamethasone-treated controls) were injected with 100 μl of Freund's complete adjuvant/lipoidal amine (FCA/LA) subcutaneously at the base of the tail on study day 0 under anesthesia. The rapid onset (within 7 days) of arthritic symptoms in this model includes ankle inflammation, bone resorption, and mild cartilage destruction. […] The dexamethasone-treated control animals were administered a daily oral dose of dexamethasone (0.1 mg/kg). Body weights were measured regularly during the course of the study to track the effect of the drugs on the weight loss induced by the developing adjuvant disease, and dose volumes were adjusted accordingly. Prior to the onset of swelling, but after the establishment of systemic disease (about 7 days after adjuvant injection), caliper measurements were made of ankle joints. Ankles were measured every day until 14 days post-adjuvant injection when the rats were anesthetized and euthanized. Serum was harvested one hour after final dosing for gallium quantitation. Hind paws, liver and spleen were weighed, fixed and processed for histopathologic evaluation. Adjuvant arthritic ankles were given scores of 0-5 (0=normal; 5=severe) for inflammation and bone resorption. Splenic changes of inflammation, increased extramedullary hematopoiesis and lymphoid atrophy were scored 0-5 using criteria similar to those used for scoring of inflammation. The primary endpoint is periarticular inflammation and bone resorption as quantitated by ankle caliper measurements and histopathologic evaluation of ankles (scoring of joints). Secondary endpoints include body weight change and the inhibition of splenomegaly and hepatomegaly.
The following data was compiled from the above described model studies. All sampling was done 1 hour post-dosing.

[4] = tested on: male Lewis rats with streptococcal (PGPS) cell wall induced arthritis; experiment: Streptococcal cell wall (PGPS)-induced chronic arthritis model; assay type: in vivo; conditions: 100, 200 and 300 mg/kg daily oral gavage, 35 days
[5] = tested on: male Lewis rats with adjuvant-induced acute arthritis; experiment: Adjuvant-induced acute arthritis model; assay type: in vivo
Method: as §1
Materials and methods: For the adjuvant-induced acute arthritis model, male Lewis rats (7 per group for Gallium Maltolate, 4 per group for normal controls and dexamethasone-treated controls) were injected with 100 μl of Freund's complete adjuvant/lipoidal amine (FCA/LA) subcutaneously at the base of the tail on study day 0 under anesthesia. The rapid onset (within 7 days) of arthritic symptoms in this model includes ankle inflammation, bone resorption, and mild cartilage destruction. Prophylactic treatment was initiated by dosing with control vehicle or Gallium Maltolate (100 or 300 mg/kg) by daily oral gavage, from seven days prior to adjuvant injection until termination. The dexamethasone-treated control animals were administered a daily oral dose of dexamethasone (0.1 mg/kg). Body weights were measured regularly during the course of the study to track the effect of the drugs on the weight loss induced by the developing adjuvant disease, and dose volumes were adjusted accordingly. Prior to the onset of swelling, but after the establishment of systemic disease (about 7 days after adjuvant injection), caliper measurements were made of ankle joints. Ankles were measured every day until 14 days post-adjuvant injection when the rats were anesthetized and euthanized. Serum was harvested one hour after final dosing for gallium quantitation. Hind paws, liver and spleen were weighed, fixed and processed for histopathologic evaluation. Adjuvant arthritic ankles were given scores of 0-5 (0=normal; 5=severe) for inflammation and bone resorption. Splenic changes of inflammation, increased extramedullary hematopoiesis and lymphoid atrophy were scored 0-5 using criteria similar to those used for scoring of inflammation. The primary endpoint is periarticular inflammation and bone resorption as quantitated by ankle caliper measurements and histopathologic evaluation of ankles (scoring of joints). Secondary endpoints include body weight change and the inhibition of splenomegaly and hepatomegaly.

[6] = 100 or 300 mg/kg daily oral gavage, both doses

Cc1occc(=O)c1[O-].Cc1occc(=O)c1[O-].Cc1occc(=O)c1[O-].[Ga+3] [gallium maltolate, tris(3-hydroxy-2-methyl-4H-pyran-4-onato) gallium]
inflammation after the first reactivation of arthritis on day 0 ([1]; 300 mg/kg oral): slight inhibition | ankle swelling, first reactivation ([1]; 300 mg/kg, day 12): reduced the swelling significantly | bone resorption ([1]; 100, 200 or 300 mg/kg po qd): Significant dose dependent anti-inflammatory effects | cartilage (damage) ([1]; 100, 200 or 300 mg/kg po qd): Significant dose dependent anti-inflammatory effects | histological inflammation scores ([1]; 100, 200 or 300 mg/kg po qd): dose-related inhibition | pannus ([1]; 100, 200 or 300 mg/kg po qd): dose-related effect; also recorded: Significant dose dependent anti-inflammatory effects | periosteal proliferation ([1]; 100, 200 or 300 mg/kg po qd): dose-related effect; also recorded: Significant dose dependent anti-inflammatory effects | paw weights after the second reactivation ([1]; 100, 200 or 300 mg/kg po qd, all treated groups): decreased | inhibition of the sum of the scores for inflammation, pannus, cartilage damage and bone damage (joint histopathology) ([1]; 100, 200 or 300 mg/kg po qd, dose responsive): 20-45% | ankle swelling after the second reactivation (flare-up, day 14) ([1]; gallium maltolate 100, 200 or 300 mg/kg po qd, Cyclosporin A 5-20 mg/kg): decreased ankle swelling | peak effect on ankle swelling, time after the flare-up ([1]; second reactivation on day 14): ≤ 6 days | start of decreased ankle swelling after the flare-up ([1]; second reactivation on day 14): ≤ 2 days | Mean Serum Gallium Concentration [2]: 2050 ng/mL | serum gallium levels attained ([3]; 100 or 300 mg/kg daily oral gavage): dose-dependent | Mean Serum Gallium Concentration ([3]; Study LATT-1, 100 mg/kg, solution, pretreatment 1 day, not fasted): 652 ng/mL | Mean Serum Gallium Concentration ([3]; Study LATT-2, 100 mg/kg, 1% MC suspension, pretreatment 1 day, fasted): 1350 ng/mL | Mean Serum Gallium Concentration ([3]; Study LATT-2, 300 mg/kg, 1% MC suspension, pretreatment 1 day, fasted): 3470 ng/mL | Mean Serum Gallium Concentration ([3]; Study LATT-2, 300 mg/kg, 1% MC suspension, pretreatment 7 days, fasted): 2960 ng/mL | safety / signs of toxicity [4]: safe and showed no signs of toxicity; also recorded: safe with no signs of toxicity | safety / signs of toxicity ([5]; 100 or 300 mg/kg daily oral gavage in 1% methyl cellulose, 14 days, Lewis rats): safe and showed no signs of toxicity; also recorded: safe with no signs of toxicity | bone resorption scores [5, 6]: significant reduction | liver and spleen hypertrophy (weights) [5, 6]: dose-related decrease; also recorded: marked reduction | effect on body weight (arthritis-induced body weight loss) ([5]; gallium maltolate 100 or 300 mg/kg, dexamethasone 0.1 mg/kg, daily oral): favorable effect | ankle (joint) inflammation, clinical and histological ([5]; gallium maltolate 100 or 300 mg/kg, dexamethasone 0.1 mg/kg, daily oral, vs disease control): reduced ankle inflammation; also recorded: significant reduction; also recorded: Significant dose dependent protection | spleen histopathology: atrophy of the lymphoid tissue ([5]; oral gallium maltolate): prevented atrophy | spleen histopathology: inflammation in the spleen ([5]; oral gallium maltolate): significantly reduced inflammation
